Experimental data taken from US10344019B2 (priority 2010, dated 2019).
Like-named read-outs stand apart in the source and are kept apart here.

Key:
Assay type in all cases: cell-based
[1] = test system: Q30R in genotype 1a NS5A, 1a Rluc replicon transfected into Huh-7 cured-51 cells; test: HCV replicon assay, resistance mutant 1a Q30R
Method in brief: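 Q30R introduced into genotype 1a H77 RLuc replicon by site-directed mutagenesis; replicon RNA transfected into Huh-7 cured-51 cells.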

[2] = test system: HCV 2a JFH-1 Rluc cells (dicistronic genotype 2a JFH-1 replicon, RLuc reporter); test: microbe, parasite or virus in culture; details: Hepatitis C virus, read-out: 2a JFH
Method in brief: (§1)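 Replicon cells stably carrying the listed RLuc-encoding dicistronic replicons were seeded and treated with DMSO serial dilutions of compound (10 mM stocks) diluted into culture medium. After 72 h, cells were lysed and Renilla luciferase activity measured. EC50 was derived by non-linear regression.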

[3] = test system: HCV 4a Rluc cells (NS5A chimeric genotype 1b Con1 replicon with genotype 4a NS5A gene); test: microbe, parasite or virus in culture; details: read-out: 4a
Method in brief: as §1

[4] = test system: HCV 1b RLuc cells (dicistronic genotype 1b Con1 replicon, RLuc reporter); test: microbe, parasite or virus in culture; details: Hepatitis C virus, read-out: 1b (nM)
Method in brief: as §1

[5] = test system: HCV 2b Rluc cells (NS5A chimeric genotype 2a JFH-1 replicon with genotype 2b MD2b-1 NS5A gene, M31 present); test: microbe, parasite or virus in culture; details: read-out: 2b
Method in brief: as §1

[6] = test system: HCV 1a RLuc cells (dicistronic genotype 1a H77 replicon, RLuc reporter); test: microbe, parasite or virus in culture; details: Hepatitis C virus, read-out: 1a
Method in brief: as §1

[7] = test system: HCV 3a RLuc cells (NS5A chimeric genotype 1b Con1 replicon with consensus genotype 3a NS5A gene); test: microbe, parasite or virus in culture; details: Hepatitis C virus
Method in brief: as §1

[8] = test system: HCV 2a Rluc cells (NS5A chimeric genotype 2a JFH-1 replicon with genotype 2a J6 strain NS5A gene, M31 present); test: HCV replicon reporter assay, genotype 2a J6 (M31 present); details: read-out: 2a J6
Method in brief: as §1

[9] = Hepatitis C virus, Huh-7, read-out: 1a Q30R
[10] = read-out: 3a, genotype 3a replicon
[11] = genotype 2a JFH-1 RLuc replicon
[12] = read-out: 3a, genotype 3a NS5A chimeric replicon

SMILES | EC50 [1, 9] [nM] | EC50 ([2]; genotype 2a JFH-1 replicon) [nM] | EC50 ([3]; Hepatitis C virus) [nM] | EC50 [4] [nM] | EC50 ([5]; Hepatitis C virus) [nM] | EC50 ([6]; genotype 1a replicon) [nM] | EC50 [7, 10] [nM] | EC50 ([8]; Hepatitis C virus) [nM] | EC50 [2, 11] [nM] | EC50 ([6]; genotype 1a H77 RLuc replicon) [nM] | EC50 [7, 12] [nM] | EC50 ([2]; 72 h, Table 2, genotype 2a JFH-1 replicon, 72 hours) [nM] | EC50 ([4]; 72 h) [nM] | EC50 ([6]; 72 h, Table 2, genotype 1a H77 replicon, 72 hours) [nM] | EC50 ([7]; read-out: 3a, Table 2, genotype 3a NS5A chimeric replicon) [nM] | EC50 ([1]; read-out: 1a Q30R, genotype 1a NS5A Q30R resistance mutant) [nM] | EC50 ([3]; genotype 4a NS5A chimeric replicon) [nM] | EC50 ([5]; genotype 2b NS5A chimeric replicon, M31 present) [nM] | EC50 ([8]; genotype 2a J6 NS5A chimeric replicon, M31 present) [nM]
CCC(=O)N[C@@H](C(=O)N1[C@@H]2CC[C@@H](C2)[C@H]1c1nc2ccc3cc(-c4ccc5c(ccc6nc([C@@H]7CCCN7C(=O)[C@@H](NC(=O)OC)C(C)C)[nH]c65)c4)ccc3c2[nH]1)c1ccccc1 [Example 418] | 1 to 44 | 0.001 to 0.999 | 0.001 to 0.99 | 0.035 | 0.001 to 0.999 | 0.001 to 0.999 | 0.001 to 0.99 | 0.001 to 0.999 |  |  |  |  |  |  |  |  |  |  | 
COC[C@@H]1C[C@@H](c2nc3ccc4cc(-c5ccc6c(ccc7nc([C@@H]8CCCN8C(=O)[C@@H](NC(=O)OC)C(C)C)[nH]c76)c5)ccc4c3[nH]2)N(C(=O)[C@@H](NC(=O)OC)C(C)C)C1 [Example 397] | 0.001 to 0.999 | 0.001 to 0.999 | 0.001 to 0.99 | 0.017 | 0.001 to 0.999 | 0.001 to 0.999 | 0.001 to 0.99 | 0.001 to 0.999 |  |  |  |  |  |  |  |  |  |  | 
COC[C@H]1C[C@@H](c2nc3ccc4cc(-c5ccc6c(ccc7nc([C@@H]8C[C@H](COC)CN8C(=O)[C@H](NC(=O)OC)c8ccccc8)[nH]c76)c5)ccc4c3[nH]2)N(C(=O)[C@@H](NC(=O)OC)C(C)C)C1 [Example 437] | 0.001 to 0.999 | 0.001 to 0.999 | 0.001 to 0.99 | 0.048 | 0.001 to 0.999 | 0.001 to 0.999 | 0.001 to 0.99 | 0.001 to 0.999 |  |  |  |  |  |  |  |  |  |  | 
COC(=O)N[C@H](C(=O)N1CCC[C@H]1c1nc2ccc3cc(-c4ccc5c(ccc6nc([C@@H]7CC8(CN7C(=O)[C@H](NC(=O)OC)c7ccccc7)OCCO8)[nH]c65)c4)ccc3c2[nH]1)C(C)C [Example 317] | 0.001 to 0.999 | 0.001 to 0.999 | 0.001 to 0.99 | 0.023 | 0.001 to 0.999 | 0.001 to 0.999 | 0.001 to 0.99 | 0.001 to 0.999 |  |  |  |  |  |  |  |  |  |  | 
COC[C@H]1C[C@@H](c2nc3ccc4cc(-c5ccc(-c6cnc([C@@H]7CCCN7C(=O)[C@@H](NC(=O)OC)C(C)C)[nH]6)cc5)ccc4c3[nH]2)N(C(=O)[C@H](NC(=O)OC)c2ccccc2)C1 [Example 433] | 0.001 to 0.999 | 0.001 to 0.999 | 0.001 to 0.99 | 0.02 | 0.001 to 0.999 | 0.001 to 0.999 | 0.001 to 0.99 | 0.001 to 0.999 |  |  |  |  |  |  |  |  |  |  | 
COC[C@H]1C[C@@H](c2nc3ccc4cc(-c5ccc6c(ccc7nc([C@@H]8C[C@H]9C[C@H]9N8C(=O)[C@@H](NC(=O)OC)C(C)C)[nH]c76)c5)ccc4c3[nH]2)N(C(=O)[C@H](NC(=O)C2CC2)c2ccccc2)C1 [Example 502] | 0.001 to 0.999 |  | 0.001 to 0.99 | 0.016 | 0.001 to 0.999 |  |  | 0.001 to 0.999 | 0.001 to 0.999 | 0.001 to 0.999 | 0.001 to 0.99 |  |  |  |  |  |  |  | 
COC(=O)N[C@H](C(=O)N1CCC[C@H]1c1nc2ccc3cc(-c4ccc5c(ccc6nc([C@@H]7[C@H]8CC[C@H](C8)N7C(=O)[C@@H](NC(=O)OC)C(C)C)[nH]c65)c4)ccc3c2[nH]1)C(C)C [Example 63] | 1 to 44 |  | 0.001 to 0.99 |  | > 44 |  |  | 1 to 44 |  |  |  | 0.001 to 0.999 | 0.019 | 0.001 to 0.999 | 0.001 to 0.99 |  |  |  | 
COC[C@@H]1C[C@@H](c2nc3ccc4cc5c(cc4c3[nH]2)OCc2cc(-c3cnc([C@@H]4CCCN4C(=O)[C@@H](NC(=O)OC)C(C)C)[nH]3)ccc2-5)N(C(=O)[C@H](NC(=O)OC)c2ccccc2)C1 [Example 589] | 0.001 to 0.999 |  | 0.001 to 0.99 |  | 0.001 to 0.999 |  |  | 0.001 to 0.999 | 0.001 to 0.999 | 0.001 to 0.999 | 0.001 to 0.99 |  |  |  |  |  |  |  | 
COC(=O)N[C@H](C(=O)N1CCC[C@H]1c1nc2c([nH]1)-c1cc3c(cc1CC2)-c1ccc(-c2cnc([C@@H]4CCCN4C(=O)[C@H](NC(=O)OC)c4ccccc4)[nH]2)cc1CO3)C(C)C [Example 435] | 0.001 to 0.999 | 0.001 to 0.999 | 0.001 to 0.99 |  | 0.001 to 0.999 | 0.001 to 0.999 | 0.001 to 0.99 | 0.001 to 0.999 |  |  |  |  |  |  |  |  |  |  | 
COC(=O)N[C@H](C(=O)N1[C@H](c2nc3ccc4cc5c(cc4c3[nH]2)OCc2cc(-c3cnc(C4CCCN4C(=O)[C@H](NC(=O)OC)c4ccccc4)[nH]3)ccc2-5)C[C@@H]2CCC[C@@H]21)C(C)C (stereo partly shown) [Example 574] | 0.001 to 0.999 |  | 0.001 to 0.99 |  | 0.001 to 0.999 |  |  | 0.001 to 0.999 | 0.001 to 0.999 | 0.001 to 0.999 | 0.001 to 0.99 |  |  |  |  |  |  |  | 
COC(=O)N[C@H](C(=O)N1CCC[C@H]1c1ncc(-c2ccc3c(c2)COc2cc4c(ccc5nc([C@@H]6CCCN6C(=O)[C@H](NC(=O)OC)c6ccccc6)[nH]c54)cc2-3)[nH]1)[C@@H](C)OC [Example 588] | 0.001 to 0.999 |  | 0.001 to 0.99 |  | 0.001 to 0.999 |  |  | 0.001 to 0.999 | 0.001 to 0.999 | 0.001 to 0.999 | 0.001 to 0.99 |  |  |  |  |  |  |  | 
COC(=O)N[C@H](C(=O)N1CCC[C@H]1c1ncc(-c2ccc3c(c2)COc2cc4c(cc2-3)CCc2nc([C@@H]3CCCN3C(=O)[C@H](NC(=O)OC)c3ccccc3)[nH]c2-4)[nH]1)C(C)C [Example 434] | 0.001 to 0.999 | 0.001 to 0.999 | 0.001 to 0.99 |  | 0.001 to 0.999 | 0.001 to 0.999 | 0.001 to 0.99 | 0.001 to 0.999 |  |  |  |  |  |  |  |  |  |  | 
COC[C@H]1C[C@@H](c2nc3ccc4cc(-c5ccc6c(ccc7nc([C@@H]8CCCN8C(=O)[C@@H](NC(=O)OC)C(C)C)[nH]c76)c5)ccc4c3[nH]2)N(C(=O)[C@H](NC(=O)OC)c2ccccc2)C1 [Example 540] |  |  |  |  |  |  |  |  | 0.001 to 0.999 | 0.001 to 0.999 | 0.001 to 0.99 |  |  |  |  | 0.001 to 0.999 | 0.001 to 0.99 | 0.001 to 0.999 | 0.001 to 0.999
COC(=O)N[C@H](C(=O)N1CCC[C@H]1c1ncc(-c2ccc3c(c2)COc2cc4c(ccc5nc([C@@H]6C[C@H](C)CN6C(=O)[C@@H](NC(=O)OC)C(C)C)[nH]c54)cc2-3)[nH]1)C(C)C [Example 526] | 0.001 to 0.999 |  | 0.001 to 0.99 |  | 0.001 to 0.999 |  |  | 0.001 to 0.999 | 0.001 to 0.999 | 0.001 to 0.999 | 0.001 to 0.99 |  |  |  |  |  |  |  | 
COC[C@H]1C[C@@H](c2nc3ccc4cc5c(cc4c3[nH]2)OCc2cc(-c3cnc([C@@H]4CCCN4C(=O)[C@@H](NC(=O)OC)C(C)C)[nH]3)ccc2-5)N(C(=O)[C@H](NC(=O)OC)c2ccccc2)C1 [Example 538] | 0.001 to 0.999 |  | 0.001 to 0.99 |  | 0.001 to 0.999 |  |  | 0.001 to 0.999 | 0.001 to 0.999 | 0.001 to 0.999 | 0.001 to 0.99 |  |  |  |  |  |  |  | 
